Laboratory results as given in ChEMBL document CHEMBL1143452, “Synthesis and biological evaluation of 1-amino-1,1-bisphosphonates derived from fatty acids against Trypanosoma cruzi targeting farnesyl pyrophosphate synthase” (Bioorg Med Chem Lett, 2005).

Legend:
Trypanosoma cruzi [1] = experiment: Inhibitory concentration against growth of Trypanosoma cruzi amastigotes; assay type: functional, organism-based
Trypanosoma cruzi [2] = experiment: Inhibitory concentration against growth of Trypanosoma cruzi epimastigotes; assay type: functional, organism-based

Row | Compound | IC50 (Trypanosoma cruzi [1]) [µM] | IC50 (Trypanosoma cruzi [2]) [µM]
1 | CCCC(N)(P(=O)(O)O)P(=O)(O)O | > 85 | > 100
2 | CCCCC(N)(P(=O)(O)O)P(=O)(O)O | > 85 | > 100
3 | CCC(N)(P(=O)(O)O)P(=O)(O)O | > 85 | > 100
4 | CCCCCC(N)(P(=O)(O)O)P(=O)(O)O | 77 | > 100
5 | CC(N)(P(=O)(O)O)P(=O)(O)O | > 100 | > 100
6 | CCCCCCC(N)(P(=O)(O)O)P(=O)(O)O | 72 | > 100
